Measured values published in PMC5214746, “Biological and Chemical Adaptation to Endogenous Hydrogen Peroxide Production in Streptococcus pneumoniae D39” (mSphere, 2017).

Molecular target: T1, S. pneumoniae SpxB (pyruvate oxidase) (Streptococcus pneumoniae, UniProt A0A0H2ZP58)
T1 construct: recombinant from E. coli Rosetta BL21(DE3)/pLysS, pHis-parallel vector, His tag apparently kept
Test: H2O2 generation, peroxidase-coupled quinoneimine dye at […] nm
Assay type: biochemical
Conditions: 0.2 mM pyruvate, 50 mM KH2PO4 pH 6, 0.2 mM FAD, 0.2 mM TPP, 0.5 to 2 mM Mg(II) or Mn(II), 37 °C

T1 sequence (A0A0H2ZP58 entry or part of it): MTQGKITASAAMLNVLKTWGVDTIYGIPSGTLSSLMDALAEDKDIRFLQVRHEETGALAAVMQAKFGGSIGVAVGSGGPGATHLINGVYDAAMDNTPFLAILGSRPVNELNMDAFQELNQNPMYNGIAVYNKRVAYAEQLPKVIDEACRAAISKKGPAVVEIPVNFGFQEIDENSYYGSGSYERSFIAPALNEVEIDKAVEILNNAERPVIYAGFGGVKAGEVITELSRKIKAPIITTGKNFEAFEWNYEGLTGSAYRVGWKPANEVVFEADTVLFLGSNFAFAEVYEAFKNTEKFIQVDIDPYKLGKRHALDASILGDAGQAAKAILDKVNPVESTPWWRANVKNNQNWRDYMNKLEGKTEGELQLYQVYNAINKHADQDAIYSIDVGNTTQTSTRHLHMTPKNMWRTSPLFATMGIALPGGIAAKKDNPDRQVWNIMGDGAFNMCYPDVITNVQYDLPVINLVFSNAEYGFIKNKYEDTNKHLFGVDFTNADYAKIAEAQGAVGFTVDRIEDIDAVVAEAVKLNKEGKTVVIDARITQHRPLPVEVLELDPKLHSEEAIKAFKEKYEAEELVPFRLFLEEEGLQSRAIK

`CC(=O)C(=O)O` [sodium pyruvate] was tested, and the “H2O2 generation, peroxidase-coupled quinoneimine dye at 550 nm” value was “Quinoneimine dye formation was monitored in triplicate with the addition of sodium pyruvate”.
